According to PubChem BioAssay AID1963447 (Molecular Pharmacology Branch, DTP, NCI, 2024):

Tested on: 885512-296-R-J2-PDC complex spheroid growth, % test/control
Experiment: Anticancer human tumor 885512-296-R-J2-PDC patient-derived breast carcinoma cell line growth inhibition [Asc]
Settings: for IC50: curve of first compound; for viability, T/C: stronger effect = lower value
Protocol: Multicellular complex tumor spheroid response to apoptosis pathway targeting inhibitors Alrizomadlin, Pelcitoclax, and Dasminapant in combination with a variety of drugs and investigational agents in selected tumor cell lines
The MDM2 inhibitor alrizomadlin, the Bcl-2/Bcl-xL inhibitor pelcitoclax, and the IAPs inhibitor dasminapant were evaluated both individually and in combination with standard of care and investigational anticancer small molecules within a complex spheroid model of solid tumors. . Complex spheroids include a stromal component modeled by human endothelial cells (HUVEC) and fibroblasts modeled by human mesenchymal stem cells (MSCs). The concentration ranges selected for each drug and investigational agent were based upon clinically achievable concentrations if the clinical Cmax of the agent was known.
Compounds. The drugs and investigational agents: alrizomadlin (APG-115; NSC831270), pelcitoclax (APG-1252; NSC835773), dasminapant (APG-1387;NSC834197), TAK-243 (NSC785004), copanlisib (NSC809693), olaparib (NSC753686), talazoparib (NSC767125), cobimetinib (NSC 768068), eltanexor (KPT-8602, NSC 794443), abemaciclib (NSC 768073), sotorasib (NSC818433), adagrasib (NSC 831453), MRTX-1133 (NSC 836407), Iadademestat (ORY1001, NSC 806812), and RMC-4630 (NSC839698), were obtained from the NCI Developmental Therapeutics Program Chemical Repository. The FDA-approved anticancer drug set is available from the Developmental Therapeutics Program at https://dtp.cancer.gov/organization/dscb/obtaining/available plates.htm. […] The stock solutions were prepared in dimethyl sulfoxide (DMSO, Sigma-Aldrich, St. Louis, MO, cat. D2650) at 800-fold the tested concentration and stored at -70 degrees C prior to their use. All drugs and investigational agents were tested over a range starting from a high concentration at or near the clinical Cmax and decreasing in half-log increments. If the clinical Cmax for an agent had not been determined, the highest concentration tested was 10 microM.
The patient-derived cancer (PDC) cell lines include five colon adenocarcinomas: 186277-243-T-J2-PDC, 616215-338-R-J1-PDC, 439559-082-T-J2-PDC, 463943-066-T-J2-PDC, and 519858-162-T-J1-PDC; three pancreatic carcinomas: 323965-272-R-J2-PDC, 521955-158-R6-J3-PDC, and 521955-158-R2-J5-PDC; two uterine sarcomas: 327498-152-R-J2-PDC and 993429-296-R-J1-PDC; two rhabdomyosarcomas: 755483-174-R-J1-PDC and 772245-204-R-J1-PDC; two soft tissue sarcomas: 126254-015-R-J1-PDC and 494315-158-R-J1-PDC; two malignant fibrous histiocytomas: 317291-083-R-J1-PDC and 596521-263-R-J1-PDC; two breast carcinomas: 171881-019-R-J1-PDC and 885512-296-R-J2-PDC; and one ovarian carcinoma: 6556581-035-R-J-PDC were obtained from the NCI PDMR, (https://pdmr.cancer.gov). The established cell lines HSSY-2 synovial sarcoma (RRID:CVCL 8719), SYO-1 synovial sarcoma (RRID:CVCL_7146), MPNST malignant peripheral neural sheath tumor were obtained from the Sloan Kettering Institute. The following established cell lines were purchased from the American Type Culture Collection (ATCC, Manassas, VA), Sor the received from the NCI repository:, PANC-1 pancreatic carcinoma (CRL-1469, RRID:CVCL_0480), OVCAR-5 ovarian carcinoma (RRID:CVCL_1628), OVCAR-8 ovarian carcinoma (RRID:CVCL_1629), , MCF-7 breast carcinoma (CRL-12584, RRID:CVCL_0031), MDA-MB-231 breast carcinoma (CRL-12532, RRID:CVCL_0062), NCI-H1876 small cell lung carcinoma (CRL-5902, RRID:CVCL_1503), NCI-H510A small cell lung carcinoma (HTB-184, RRID:CVCL_1565), NCI-H1417 (CRL-5869, RRID:CVCL_1469), and NCI-H196 small cell lung carcinoma (CRL-5823, RRID:CVCL_1509). Dr. Peter Houghton (Greehey Children's Cancer Research Institute, University of Texas Health Science Center, San Antonio, TX) provided Rh-18 rhabdomyosarcoma (RRID:CVCL_1659). Pooled donor human umbilical vein endothelial cells (HUVEC, Lonza, cat. CC-2519) and human mesenchymal stem cells (hMSC, Lonza, cat. PT-2501) were purchased from Lonza (Walkersville, MD).
Cell Culture. […]
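Also: spheroids exposed to compounds for seven days.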
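For viability, T/C in this document: 100% = DMSO vehicle control wells.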

NC(=O)C(=Cn1cnc(-c2cc(C(F)(F)F)cc(C(F)(F)F)c2)n1)c1cncnc1 + CCN1C(C(=O)NC23CCC(C(=O)O)(CC2)CC3)C(c2cccc(Cl)c2F)C2(C(=O)Nc3cc(Cl)ccc32)C12CCCCC2
IC50 (second compound 0.03 µM): 45.1 nM
IC50 (second compound 0.0949 µM): 44 nM
IC50 (second compound 0.3 µM): 42.9 nM
IC50 (second compound 0.949 µM): 39.4 nM
IC50 (second compound 3 µM): 0.949 nM
viability, T/C (second compound 0.03 µM, first compound 0.000949 µM): 108%
viability, T/C (second compound 0.03 µM, first compound 0.003 µM): 95.1%
viability, T/C (second compound 0.03 µM, first compound 0.00949 µM): 111%
viability, T/C (second compound 0.03 µM, first compound 0.03 µM): 72.4%
viability, T/C (second compound 0.03 µM, first compound 0.0949 µM): 9.51%
viability, T/C (second compound 0.03 µM, first compound 0.3 µM): 1.11%
viability, T/C (second compound 0.0949 µM, first compound 0.000949 µM): 98.6%
viability, T/C (second compound 0.0949 µM, first compound 0.003 µM): 93.7%
viability, T/C (second compound 0.0949 µM, first compound 0.00949 µM): 113%
viability, T/C (second compound 0.0949 µM, first compound 0.03 µM): 72.2%
viability, T/C (second compound 0.0949 µM, first compound 0.0949 µM): 6.79%
viability, T/C (second compound 0.0949 µM, first compound 0.3 µM): 0.89%
viability, T/C (second compound 0.3 µM, first compound 0.000949 µM): 74.4%
viability, T/C (second compound 0.3 µM, first compound 0.003 µM): 91%
viability, T/C (second compound 0.3 µM, first compound 0.00949 µM): 92.2%
viability, T/C (second compound 0.3 µM, first compound 0.03 µM): 69.3%
viability, T/C (second compound 0.3 µM, first compound 0.0949 µM): 6.76%
viability, T/C (second compound 0.3 µM, first compound 0.3 µM): 0.83%
viability, T/C (second compound 0.949 µM, first compound 0.000949 µM): 70.3%
viability, T/C (second compound 0.949 µM, first compound 0.003 µM): 72.2%
viability, T/C (second compound 0.949 µM, first compound 0.00949 µM): 80.9%
viability, T/C (second compound 0.949 µM, first compound 0.03 µM): 63.4%
viability, T/C (second compound 0.949 µM, first compound 0.0949 µM): 6.15%
viability, T/C (second compound 0.949 µM, first compound 0.3 µM): 1.27%
viability, T/C (second compound 3 µM, first compound 0.000949 µM): 42.7%
viability, T/C (second compound 3 µM, first compound 0.003 µM): 48.9%
viability, T/C (second compound 3 µM, first compound 0.00949 µM): 48.3%
viability, T/C (second compound 3 µM, first compound 0.03 µM): 55%
viability, T/C (second compound 3 µM, first compound 0.0949 µM): 4.94%
viability, T/C (second compound 3 µM, first compound 0.3 µM): 0.76%

NC1CCC(NC2CC2c2ccccc2)CC1 (stereo not given) + CCN1C(C(=O)NC23CCC(C(=O)O)(CC2)CC3)C(c2cccc(Cl)c2F)C2(C(=O)Nc3cc(Cl)ccc32)C12CCCCC2
IC50 (second compound 0.03 µM): > 100 nM
IC50 (second compound 0.0949 µM): > 100 nM
IC50 (second compound 0.3 µM): > 100 nM
IC50 (second compound 0.949 µM): > 100 nM
IC50 (second compound 3 µM): > 100 nM
viability, T/C (second compound 0.03 µM, first compound 0.000316 µM): 116%
viability, T/C (second compound 0.03 µM, first compound 0.001 µM): 129%
viability, T/C (second compound 0.03 µM, first compound 0.00316 µM): 120%
viability, T/C (second compound 0.03 µM, first compound 0.01 µM): 123%
viability, T/C (second compound 0.03 µM, first compound 0.0316 µM): 125%
viability, T/C (second compound 0.03 µM, first compound 0.1 µM): 118%
viability, T/C (second compound 0.0949 µM, first compound 0.000316 µM): 117%
viability, T/C (second compound 0.0949 µM, first compound 0.001 µM): 123%
viability, T/C (second compound 0.0949 µM, first compound 0.00316 µM): 127%
viability, T/C (second compound 0.0949 µM, first compound 0.01 µM): 114%
viability, T/C (second compound 0.0949 µM, first compound 0.0316 µM): 124%
viability, T/C (second compound 0.0949 µM, first compound 0.1 µM): 119%
viability, T/C (second compound 0.3 µM, first compound 0.000316 µM): 108%
viability, T/C (second compound 0.3 µM, first compound 0.001 µM): 116%
viability, T/C (second compound 0.3 µM, first compound 0.00316 µM): 118%
viability, T/C (second compound 0.3 µM, first compound 0.01 µM): 108%
viability, T/C (second compound 0.3 µM, first compound 0.0316 µM): 118%
viability, T/C (second compound 0.3 µM, first compound 0.1 µM): 118%
viability, T/C (second compound 0.949 µM, first compound 0.000316 µM): 99.8%
viability, T/C (second compound 0.949 µM, first compound 0.001 µM): 102%
viability, T/C (second compound 0.949 µM, first compound 0.00316 µM): 104%
viability, T/C (second compound 0.949 µM, first compound 0.01 µM): 99.7%
viability, T/C (second compound 0.949 µM, first compound 0.0316 µM): 103%
viability, T/C (second compound 0.949 µM, first compound 0.1 µM): 104%
viability, T/C (second compound 3 µM, first compound 0.000316 µM): 66.5%
viability, T/C (second compound 3 µM, first compound 0.001 µM): 62.2%
viability, T/C (second compound 3 µM, first compound 0.00316 µM): 62.2%
viability, T/C (second compound 3 µM, first compound 0.01 µM): 70.7%
viability, T/C (second compound 3 µM, first compound 0.0316 µM): 71.4%
viability, T/C (second compound 3 µM, first compound 0.1 µM): 74.8%
